We go through 7 compounds from patent US9636409B2, “Enzyme and receptor modulation using covalent conjugates of alpha,alpha-disubstituted glycine esters” (GlaxoSmithKline Intellectual Property Development Limited, priority 2008, dated 2017).

Where two headings read alike, the source gives them in different places.

The target of series [1] is histone deacetylase activity (HeLa nuclear extract). The series is described as follows: Histone deacetylase activity (Fluor de Lys, HeLa nuclear extract). In kind it is biochemical. To be noted: read-out: Inhibition of HDAC (IC50 nM). The procedure: Histone Deacetylase Activity
The ability of compounds to inhibit histone deacetylase activities was measured using the commercially available HDAC fluorescent activity assay from Biomol. In brief, the Fluor de Lys™ substrate, a lysine with an epsilon-amino acetylation, is incubated with the source of histone deacetylase activity (HeLa nuclear extract) in the presence or absence of inhibitor. Deacetylation of the substrate sensitises the substrate to Fluor de Lys™ developer, which generates a fluorophore. Thus, incubation of the substrate with a source of HDAC activity results in an increase in signal that is diminished in the presence of an HDAC inhibitor.
Data are expressed as a percentage of the control, measured in the absence of inhibitor, with background signal being subtracted from all samples, as follows: % activity=[(S^i−B)/(S^o−B)]×100 where S^i is the signal in the presence of substrate, enzyme and Inhibitor, S^o is the signal in the presence of substrate, enzyme and the vehicle in which the inhibitor is dissolved, and B is the background signal measured in the absence of enzyme.
IC50 values were determined by non-linear regression analysis, after fitting the results of eight data points to the equation for sigmoidal dose response with variable slope (% activity against log concentration of Compound), using Graphpad Prism software.
Histone deacetylase activity from crude nuclear extract derived from HeLa cells was used for screening. The preparation, purchased from 4C (Seneffe, Belgium), was prepared from HeLa cells harvested whilst in exponential growth phase. The nuclear extract was prepared according to the methodology described by J. D. Dignam, Nucl. Acid. Res., 1983, 11, 1475-1489, snap frozen in liquid nitrogen and stored at −80° C. The final buffer composition was 20 mM Hepes, 100 mM KCl, 0.2 mM EDTA, 0.5 mM DTT, 0.2 mM PMSF and 20% (v/v) glycerol.

The subject of another series is U937 cells. The series is described as follows: U937 cell inhibition assay (WST-1 proliferation). To be noted: for Ratio cell IC50s to enzyme IC50: U937 proliferation IC50 to HDAC enzyme IC50; for potency in the cellular (U937 proliferation) assay compared with the parent compound: versus Compound IV. The series is classed as cell-based. Here is the method: (§1) U937 and HUT Cell Inhibition Assay
(§2) Cancer cell lines (U937 and HUT) growing in log phase were harvested and seeded at 1000-2000 cells/well (100 μl final volume) into 96-well tissue culture plates. Following 24 hours of growth cells were treated with compound. Plates were then re-Incubated for a further 72-96 hours before a WST-1 cell viability assay was conducted according to the suppliers (Roche Applied Science) instructions.
(§3) Data were expressed as a percentage inhibition of the control, measured in the absence of Inhibitor, as follows: % inhibition=100−[(S^i/S^o)×100] where S^i is the signal in the presence of Inhibitor and S^o s the signal in the presence of DMSO.
(§4) Dose response curves were generated from 8 concentrations (top final concentration 10 μM, with 3-fold dilutions), using 6 replicates.
(§5) IC50 values were determined by non-linear regression analysis, after fitting the results to the equation for sigmoidal dose response with variable slope (% activity against log concentration of compound), using Graphpad Prism software.
For orientation: Tetrazolium dyes change colour on reduction, which living cells bring about.

The next series concerns HUT 78 cells. The series is described as follows: HUT cell inhibition assay (WST-1 proliferation). In kind it is cell-based. The settings on record: Table 5; for IC50: HUT 78 cells; for Ratio IC50s in HUT 78 to U937 cells: proliferation IC50s. Here is the method:
as §1, §2, §3, §4, §5

For series [2], the system named is phosphorylation of MAPKAP-2 in U937 cells. Briefly: p38 MAP Kinase cellular assay: inhibition of phosphorylation of MAPKAP2 in U937 cells. The series is classed as cell-based. To be noted: for IC50: Homo sapiens, U-937, U937 monocyte cell line, read-out: Inhibition of phosphorylation of MAPKAP-2 in U937 cells (IC50, nM) (monocyte cell line). The procedure:
(§6) p38 MAP Kinase Cellular Assay: Inhibition of Phosphorylation of MAPKAP2
(§7) U937 or HUT78 cells were plated in RPMI 1640, and were incubated at 37° C., 5% CO2 for 18 hours. 10 mM stocks of compounds were diluted media/0.1% DMSO to give a log or semi-log dilution series. The wells for ‘no treatment’ and ‘anisomycin’ were treated with 0.1% DMSO only. The cells were incubated at 37° C., 5% CO2 for a further 4 hours. Anisomycin was added to all wells except ‘no treatment’ at a final concentration of 10 μM. The cells were incubated at 37° C., 5% CO2 for 30 minutes before harvest. Plates were stood on ice whilst harvesting, and all following steps were carried out at 4° C. The cells were pelleted at 1000 rpm for 10 minutes at 4° C., the media aspirated, and the pellet washed with cold PBS. The pellets were lysed in 120 μl of SDS lysis buffer (62.5 mM Tris, pH 6.8, 2% SDS, 10% glycerol, 50 mM DTT, with protease inhibitors and phosphatase inhibitors added according to the manufacturers' recommendations). After 30 minutes on ice, the samples were sonicated for 5 seconds before centrifugation at 13,000 rpm 4° C. for 10 minutes to remove cell debris. 10 μl of the resulting gel samples were loaded per lane on NOVEX 4-12% Bis-Tris MOPS gels. Membranes from western transfer of gels were blotted with anti-phospho MAPKAP2, anti-phospho HSP27 and anti GAPDH according to the manufacturers' Instructions. Signal was visualised using HRP-Hnked anti-rabbit or anti-mouse antibodies, ECL reagent and ECL film. IC50 values for the various compounds were visualised from the resulting photographic images, using both band-shift and signal intensity.

Series [3] deals with phosphorylation of MAPKAP-2 in HUT 78 cells. Briefly: p38 MAP Kinase cellular assay: inhibition of phosphorylation of MAPKAP2 in HUT 78 cells. The settings on record: for IC50: Homo sapiens, HuT78, HUT 78 non-monocyte cell line; for Ratio IC50s in HUT 78 to U937 cells: MAPKAP-2 phosphorylation IC50s. In kind it is cell-based. Here is the method: as §6, §7
The target in another series is T1, recombinant hCE-1 (Homo sapiens, UniProt P23141).
T1 sequence (P23141 18-567): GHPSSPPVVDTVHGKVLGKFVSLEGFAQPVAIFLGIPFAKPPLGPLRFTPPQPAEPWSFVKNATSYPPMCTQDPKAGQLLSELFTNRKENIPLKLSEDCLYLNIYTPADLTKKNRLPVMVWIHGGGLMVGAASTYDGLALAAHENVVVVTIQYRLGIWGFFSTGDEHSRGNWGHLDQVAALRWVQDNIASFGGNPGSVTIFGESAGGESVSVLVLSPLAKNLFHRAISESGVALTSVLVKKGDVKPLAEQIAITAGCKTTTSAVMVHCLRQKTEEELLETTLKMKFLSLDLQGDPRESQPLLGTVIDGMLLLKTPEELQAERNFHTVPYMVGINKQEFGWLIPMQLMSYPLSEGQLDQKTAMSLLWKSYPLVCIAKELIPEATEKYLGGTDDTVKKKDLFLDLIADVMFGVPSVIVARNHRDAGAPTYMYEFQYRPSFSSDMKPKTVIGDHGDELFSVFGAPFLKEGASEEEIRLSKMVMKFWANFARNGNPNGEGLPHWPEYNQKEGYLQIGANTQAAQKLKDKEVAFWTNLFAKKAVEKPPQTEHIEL
Briefly: HCE-1 carboxylesterase assay. To be noted: result in words. In kind it is in vitro ADME. Here is the method: HCE-1 Carboxylesterase Assay
Hydrolysis of esters to the corresponding carboxylic acids by hCE-1 can be measured using the following procedure. At zero time, 100 μl of recombinant hCE-1 at a concentration of 6 μg/mL in phosphate assay buffer (K2PO4 100 mM, KCl 40 mM, pH 7.4) was added to an equal volume of assay buffer containing 5 μM ester substrate. After thorough mixing, triplicate samples were incubated for 0, 20 or 80 minutes at 37° C. At the appropriate time, hydrolysis was stopped by the addition of 600 μl of acetonitrile. For zero time samples, the acetonitrile was added prior to the enzyme. The samples were analysed for the ester and its corresponding carboxylic acid at room temperature by LCMS (Sciex API 3000, HP1100 binary pump, CTC PAL). Chromatography was based on a […] (75×2.1 mm) column and a mobile phase of 5-95% acetonitrile in water/0.1% formic add. Levels of the acid, the hydrolysis product, after 80 minutes are expressed in ng/mL.

Where [4] appears, read: Table 4, Acid = carboxylic acid hydrolysis product of the ester.
The mark [5] stands for this setting: Table 4, compound as such, Ester for Examples 7 and 9.
[6] abbreviates: Table 5, Acid = carboxylic acid hydrolysis product of the ester.
The mark [7] stands for this setting: Table 5, compound as such, Ester for Examples 7 and 9.
The mark [8] stands for this setting: Homo sapiens, U-937, Table 4, head prints no unit, same values in Table 5 as IC50 nM, read-out: Inhibition of proliferation in U937 cells.
[9] abbreviates: Homo sapiens, U-937, Table 5, U937 cells, read-out: Inhibition of proliferation in U937 cells (IC50 nM).

Take `CC(C)CC(C)(NCc1ccc(CCC(=O)NO)cc1)C(=O)OC1CCCC1` (racemic) [Example 9, Cyclopentyl N-{4-[3-(hydroxyamino)-3-oxopropyl]benzyl}-2-methyl-D,L-leucinate]: the IC50 came to 6240 nM in series [1] (setting [4]); 4900 nM in series [1] (setting [5]); 6240 nM in series [1] (setting [6]); 4900 nM in series [1] (setting [7]); 190 nM in the series with U937 cells (setting [8]); 190 nM in the series on U937 cells (setting [9]). The IC50 with HUT 78 cells (Homo sapiens, HuT78) is 5500 nM. In addition, the “Ratio cell IC50s to enzyme IC50” value in the series with U937 cells (Table 4) stood at 0.04. In addition, the “potency in monocytic (U937) versus non monocytic (Hut78) cell lines (proliferation)” value with U937 cells was 30 times. In addition, in the series with U937 cells, the “potency in the cellular (U937 proliferation) assay compared with the parent compound” value is “significantly more potent than the parent compound”. Further, the “Ratio IC50s in HUT 78 to U937 cells” value in the series on HUT 78 cells is listed as 30.
In the case of `Nc1c(C(=O)c2ccc(F)cc2F)ccc(=O)n1-c1c(F)cccc1F` [Compound II, reference compound], in series [2] (Table 3), the IC50 was 10 nM. Also, in series [3] (Table 3), the IC50 stood at 10 nM and the “Ratio IC50s in HUT 78 to U937 cells” value came to 1.
On to `O=C(CCc1ccccc1)NO` [Compound IV, N-Hydroxy-3-phenyl-propionamide, reference compound], for which the IC50 in series [1] (setting [5]) and in series [1] (setting [7]) was 2600 nM throughout. In addition, the inhibition (as a rule, the percentage by which the read-out fell short of the control) at 10 µM in the series on U937 cells (Homo sapiens, U-937, Table 4, @ 10 μM) was 13%; in the series with HUT 78 cells (Homo sapiens, HuT78, @ 10 μM) it was 10%. In addition, the “Ratio cell IC50s to enzyme IC50” value in the series on U937 cells (Table 4) was more than 3.85. The “Inhibition of proliferation in U937 cells” value in the series with U937 cells (Table 5, @ 10 μM) amounted to 13% @ 10 μM. The “Ratio IC50s in HUT 78 to U937 cells” value with HUT 78 cells is on record as approximately 1.
Turning to `Nc1c(C(=O)c2ccc(F)cc2F)ccc(=O)n1-c1c(F)cc(OCCC[C@H](N)C(=O)OC2CCCC2)cc1F` [Compund III, reference compound], the IC50 in series [2] (Table 3) worked out at 1 nM. Further, in series [3] (Table 3), the IC50 came out at 1 nM and the “Ratio IC50s in HUT 78 to U937 cells” value stood at 1.
In the case of `Nc1c(C(=O)c2ccc(F)cc2F)ccc(=O)n1-c1ccc(CCNC2(C(=O)OC3CCCC3)CCCC2)cc1` [Example 3], the IC50 in series [2] (Table 2) stood at 100 nM. The “potency in monocytic versus non monocytic cell lines (MAPKAP-2 phosphorylation)” value in series [2] (U937 versus HUT 78) is 100 times. In addition, in series [3] (Table 2), the IC50 came to 10000 nM and the “Ratio IC50s in HUT 78 to U937 cells” value is reported as 100.
`CC(N)(CCCOc1cc(F)c(-n2c(N)c(C(=O)c3ccc(F)cc3F)ccc2=O)c(F)c1)C(=O)OC1CCCC1` (centres unmarked) [Example 5]: the figures for the IC50 in series [2] (Table 3) and in series [3] (Table 3) were 5 nM and 100 nM, respectively. Besides, the “macrophage selectivity (MAPKAP-2 phosphorylation, U937 versus HUT 78)” value in series [2] (result in words) is recorded as “macrophage selective”. In addition, the “Ratio IC50s in HUT 78 to U937 cells” value in series [3] (Table 3) came to 20.
As to `O=C(CCc1ccc(CNC2(C(=O)OC3CCCC3)CCCC2)cc1)NO` [Example 7, Cyclopentyl 1-({4-[3-(hydroxyamino)-3-oxopropyl]benzyl}amino)cyclopentanecarboxylate], the “hydrolysis by hCE-1” value at recombinant hCE-1 is given as “hydrolysed by hCE-1”. Further, the IC50 in series [1] (setting [4]) is 6120 nM; in series [1] (setting [5]) it was 4200 nM; in series [1] (setting [6]), 6120 nM; in series [1] (setting [7]), 4200 nM; in the series with U937 cells (setting [8]), 180 nM; in the series with U937 cells (setting [9]) it was 180 nM. Besides, the IC50 with HUT 78 cells (Homo sapiens, HuT78) was 6200 nM. Also, the “Ratio cell IC50s to enzyme IC50” value in the series with U937 cells (Table 4) was determined as 0.043. For the same compound, in the series with U937 cells, the “potency in monocytic (U937) versus non monocytic (Hut78) cell lines (proliferation)” value is 30 times. Also, the “potency in the cellular (U937 proliferation) assay compared with the parent compound” value in the series on U937 cells was “significantly more potent than the parent compound”. Moreover, in the series with HUT 78 cells, the “Ratio IC50s in HUT 78 to U937 cells” value was 34.
